From patent US20100267561A1, “HERBICIDAL PYRIDAZINONE DERIVATIVES” (priority 2007, published 2010)
Read-outs that look alike come from different tables or passages of the source.

Tests used:
[1] = system: pigweed (Amaranthus retroflexus); assay: Test A pre-/postemergence plant response; assay type: in vivo; details: for pest or weed control at 125 g/ha / pest or weed control at 500 g/ha / pest or weed control at 31 g/ha: Amaranthus retroflexus, 240 h, read-out: Plant response rating, Pigweed
Method in brief: (§1)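 Scores reflect visual plant injury relative to untreated controls on a 0–100 scale, recorded approximately 10 days after simultaneous preemergence soil spraying and postemergence spraying of one- to two-leaf seedlings grown in loam–sand.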

[2] = system: wheat (Triticum aestivum); assay: Test A pre-/postemergence plant response; assay type: in vivo; details: for plant injury at 125 g/ha / plant injury at 500 g/ha / plant injury at 31 g/ha: Triticum aestivum, 240 h, read-out: Plant response rating, Wheat
Method in brief: as §1

[3] = Postemergence, 125 g ai/ha, 0 to 100 scale, 0 no effect, 100 complete control
[4] = Postemergence, 500 g ai/ha, 0 to 100 scale, 0 no effect, 100 complete control
[5] = Preemergence, 125 g ai/ha, 0 to 100 scale (0 no effect, 100 complete control)
[6] = Preemergence, 500 g ai/ha, 0 to 100 scale (0 no effect, 100 complete control)
[7] = Postemergence, 31 g ai/ha, 0 to 100 scale, 0 no effect, 100 complete control
[8] = Preemergence, 31 g ai/ha, 0 to 100 scale, 0 is no effect, 100 is complete control
[9] = post-emergence, Postemergence, 125 g ai/ha, 0 to 100 scale, 0 no effect, 100 complete control
[10] = post-emergence, Postemergence, 500 g ai/ha, 0 to 100 scale, 0 no effect, 100 complete control
[11] = pre-emergence, Preemergence, 125 g ai/ha, 0 to 100 scale (0 no effect, 100 complete control)
[12] = pre-emergence, Preemergence, 500 g ai/ha, 0 to 100 scale (0 no effect, 100 complete control)
[13] = post-emergence, Postemergence, 31 g ai/ha, 0 to 100 scale (0 no effect, 100 complete control)
[14] = pre-emergence, Preemergence, 31 g ai/ha, 0 to 100 scale, 0 is no effect, 100 is complete control

Compound	Plant response rating, Pigweed [1, 3]	Plant response rating, Pigweed [1, 5]	Plant response rating, Wheat [2, 3]	Plant response rating, Wheat [2, 5]	Plant response rating, Pigweed [1, 7]	Plant response rating, Pigweed [1, 8]	Plant response rating, Wheat [2, 7]	Plant response rating, Wheat [2, 8]	also measured
5-[3-(4-chlorophenyl)-5-methyl-1H-pyrazol-1-yl]-1,6-dihydro-1-methyl-6-oxo-4-pyridazinyl-1-methylethyl carbonate [Compound 7]	0	0	40	60	–	–	–	–	Plant response rating, Pigweed [1, 4]: 0; Plant response rating, Pigweed [1, 6]: 0; Plant response rating, Wheat [2, 4]: 60; Plant response rating, Wheat [2, 6]: 80
Cc1cc(-c2ccc(Br)cc2)nn1-c1c(OC(=O)C2CC2)cnn(C)c1=O [Compound 5]	0	0	60	90	–	–	–	–	Plant response rating, Pigweed [1, 4]: 0; Plant response rating, Pigweed [1, 6]: 0; Plant response rating, Wheat [2, 4]: 70; Plant response rating, Wheat [2, 6]: 100
CCc1cc(-c2ccc(C(F)(F)F)cc2)nn1-c1c(OC(=O)OC(C)C)cnn(C)c1=O [Compound 12]	0	0	70	90	–	–	–	–	Plant response rating, Pigweed [1, 4]: 0; Plant response rating, Pigweed [1, 6]: 0; Plant response rating, Wheat [2, 4]: 90; Plant response rating, Wheat [2, 6]: 100
CCc1cc(-c2ccc(C(F)(F)F)cc2)nn1-c1c(O)c(C)nn(C)c1=O [Compound 16]	0	0	70	70	–	–	–	–	Plant response rating, Pigweed [1, 4]: 0; Plant response rating, Pigweed [1, 6]: 0; Plant response rating, Wheat [2, 4]: 90; Plant response rating, Wheat [2, 6]: 100
Cc1cc(-c2ccc(C(F)(F)F)cc2)nn1-c1c(O)c(C(C)C)nn(C)c1=O [Compound 27]	0	0	50	40	–	–	–	–	Plant response rating, Pigweed [1, 4]: 0; Plant response rating, Pigweed [1, 6]: 0; Plant response rating, Wheat [2, 4]: 90; Plant response rating, Wheat [2, 6]: 100
Cc1cc(-c2ccc(Cl)cc2)nn1-c1c(OC(=O)c2ccccc2Cl)cnn(C)c1=O [Compound 38]	0	0	60	60	0	0	0	20	–
Cn1ncc(O)c(-n2nc(-c3ccc(Cl)cc3)cc2C2CC2)c1=O [Compound 45]	0	0	90	80	0	0	70	50	–
Cc1ccc(-c2ccc(Cl)cc2)cc1-c1c(O)cnn(C)c1=O [Compound 46]	0	0	30	50	0	0	0	0	–
Cc1cc(-c2ccc(Cl)cc2)nn1-c1c(OS(=O)(=O)C(C)C)cnn(C)c1=O [Compound 50]	0	0	20	50	0	0	0	0	–
CCCC(=O)Oc1cnn(C)c(=O)c1-n1nc(-c2ccc(Cl)cc2)cc1C [Compound 56]	0	0	80	80	0	0	70	20	–
Cc1nn(C)c(=O)c(-n2nc(-c3ccc(Cl)cc3)cc2Cl)c1O [Compound 59]	0	0	60	50	0	0	0	0	–
CCc1cc(-c2ccc(C(F)(F)F)cc2)nn1-c1c(O)c(OC)nn(C)c1=O [Compound 66]	0	0	100	90	0	0	90	60	–
CCCc1cc(-c2ccc(C(F)(F)F)cc2)nn1-c1c(O)cnn(C)c1=O [Compound 72]	0	0	90	80	0	0	60	50	–
CCc1cc(-c2ccc(Br)cc2)nn1-c1c(O)cnn(CC(F)(F)F)c1=O [Compound 73]	10	0	70	70	10	0	40	20	–
CCc1cc(-c2ccc(Br)cc2)nn1-c1c(O)c(C)nn(C)c1=O [Compound 74]	0	0	80	60	0	0	70	20	–
CCCc1cc(-c2ccc(Cl)cc2)nn1-c1c(O)cnn(C)c1=O [Compound 76]	0	0	50	0	0	0	20	0	–
Cc1cc(-c2ccc(Br)cc2)nn1-c1c(O)cnn(C2CCCCO2)c1=O (stereo not shown) [Compound 77, 4-[3-(4-bromophenyl)-5-methyl-1H-pyrazol-1-yl]-5-hydroxy-2-(tetrahydro-2H-pyran-2-yl)-3(2H)-pyridazinone]	–	–	–	–	–	–	–	–	pest or weed control at 125 g/ha [1, 9]: 0%; pest or weed control at 500 g/ha [1, 10]: 0%; pest or weed control at 125 g/ha [1, 11]: 0%; pest or weed control at 500 g/ha [1, 12]: 0%; plant injury at 125 g/ha [2, 9]: 70%; plant injury at 500 g/ha [2, 10]: 90%; plant injury at 125 g/ha [2, 11]: 0%; plant injury at 500 g/ha [2, 12]: 80%
Cc1nn(C)c(=O)c(-c2nc(-c3ccc(Cl)cc3)sc2C)c1O [Compound 79, 4-[2-(4-chlorophenyl)-5-methyl-4-thiazolyl]-5-hydroxy-2,6-dimethyl-3(2H)-pyridazinone]	–	–	–	–	–	–	–	–	pest or weed control at 31 g/ha [1, 13]: 0%; pest or weed control at 125 g/ha [1, 9]: 0%; pest or weed control at 31 g/ha [1, 14]: 0%; pest or weed control at 125 g/ha [1, 11]: 0%; plant injury at 31 g/ha [2, 13]: 0%; plant injury at 125 g/ha [2, 9]: 50%; plant injury at 31 g/ha [2, 14]: 0%; plant injury at 125 g/ha [2, 11]: 60%
COc1nn(C)c(=O)c(-n2nc(-c3ccc(Br)cc3)cc2C)c1O [Compound 82]	0	0	100	90	0	0	90	50	–
CCc1c(C)c(-c2ccc(Br)cc2)nn1-c1c(O)cnn(C)c1=O [Compound 83]	0	30	60	30	0	0	0	0	–
